IC50 data for three compounds are collected here from US8598179B2, “Pyrazole-carboxamide derivatives as P2Y12 antagonists” (Sanofi, priority 2007, dated 2013).

The subject of this assay is human platelet rich plasma (ADP-induced platelet aggregation). Description: Inhibition of human platelet aggregation, "Born"-method (single cuvettes). In kind it is cell-based. The following applies: 0.1 h, aggregation induced by ADP, single use cuvettes, platelet aggregation profiler, 6 minutes at 37° C. On the procedure:
Inhibition of Human Platelet Aggregation
Alternatively to a binding assay which measures a compound's ability to bind to the P2Y12 receptor, the effect on cellular function was also determined. This ability of the compound was evaluated in two platelet aggregation assays: in 96-well plates and with the “Born”-method using single cuvettes.
Whole blood was collected from healthy volunteers using 20 ml syringes containing 2 ml of buffered Citrate. The anticoagulated whole blood was transferred into 15 ml polypropylene conical tubes (10 ml per tube). The tubes were centrifuged for 15 minutes at 340×g at RT without using the centrifuge brake. This procedure leads to a pellet of cellular components and a supernatant of platelet rich plasma (PRP). The PRP layer was collected from each tube and pooled for each donor. To avoid carry over of cellular components following centrifugation, approximately 5 ml of PRP was left in the tube. The platelet concentration was determined using a Coulter Counter.
The 15 ml tubes containing the pellet of cellular components were centrifuged again for 10 minutes at 1940×g. This pelleted out most particulate blood constituents remaining, leaving a layer of Platelet Poor Plasma (PPP). The PPP was collected for each donor. The PRP layer, previously set aside, was diluted with PPP to a final concentration of approximately 3×E8 platelets/ml with the PPP.
The human platelet aggregation assay is performed in single use cuvettes using the platelet aggregation profiler (PAP-4 or -8, Bio/Data corporation).
In the assay cuvette 4 μl of test compound at 100× final concentration in DMSO is mixed with 392 μl fresh PRP and incubated for 2 minutes at 37° C. with 1.200 rpm stirring. Following that incubation period, 4 μl of 250 μM ADP is added to the reaction mix. […] After that aggregation is measured over 6 minutes at 37° C. with 1.200 rpm stirring. Results of the assay are expressed as % inhibition, and are calculated using maximum aggregation (Tmax) or area under curve (AUC) of the absorbance over 6 minutes. […]
On to `CCOC(=O)N1CCN(C(=O)[C@H](CCC(=O)O)NC(=O)c2cc(OC3(C(=O)OCC)CCC3)n(-c3ccccc3)n2)CC1` [Example 1, 4-((S)-4-Carboxy-2-{[5-(1-ethoxycarbonyl-cyclobutoxy)-1-phenyl-1H-pyrazole-3-carbonyl]-amino}-butyryl)-piperazine-1-carboxylic acid ethyl ester], for which inhibition was half-maximal at 2.93 µM (IC50). With `CCOC(=O)N1CCN(C(=O)[C@H](CCC(=O)O)NC(=O)c2cc(OCC(=O)C(C)(C)C)n(-c3ccccc3)n2)CC1` [Example 80, 4-((S)-4-Carboxy-2-{[5-(3,3-dimethyl-2-oxo-butoxy)-1-phenyl-1H-pyrazole-3-carbonyl]-amino}-butyryl)-piperazine-1-carboxylic acid ethyl ester] the figure was 2.46 µM; with `CCOC(=O)COc1cc(C(=O)N[C@@H](CCC(=O)O)C(=O)N2CCN(C(=O)OCC)CC2)nn1-c1ccccc1` [Example 5, 4-{(S)-4-Carboxy-2-[(5-ethoxycarbonylmethoxy-1-phenyl-1H-pyrazole-3-carbonyl)-amino]-butyryl}-piperazine-1-carboxylic acid ethyl ester], 2.48 µM.
